Reference: PubChem BioAssay AID248 (DTP/NCI, 2004)
Where “and” joins values, the source holds several entries; their conditions need not be identical. Equal entries are not always repeated. Inconclusive results and toxic doses are left out. No stated cut-off is given here; in the data, active means T/C of 150% or more; inactive means T/C below 125%.

Test system: L1210 leukemia ip in BDF1 mice, survival T/C
Assay: NCI In Vivo Anticancer Drug Screen. Data for tumor model L1210 Leukemia (intraperitoneal) in B6D2F1 (BDF1) mice
Conditions: higher = longer survival
Outline: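 Read-out is survival time, reported as the treated-group measurement over the vehicle-control measurement.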

[1] = endpoint: mean survival time, dose: 100.0 mg/kg/injection, schedule: Q01DX001 (ip), vehicle: saline
[2] = endpoint: mean survival time, dose: 200.0 mg/kg/injection, schedule: Q01DX001 (ip), vehicle: saline
[3] = endpoint: mean survival time, dose: 400.0 mg/kg/injection, schedule: Q01DX001 (ip), vehicle: saline

Measured: T/C

CNNCc1ccc(C(=O)NC(C)C)cc1
active: endpoint: mean survival time, dose: 25.0 mg/kg/injection, schedule: Q#A X020 (ip), vehicle: saline 151 % of control | endpoint: mean survival time, dose: 50.0 mg/kg/injection, schedule: Q#A X020 (ip), vehicle: saline 157 % of control | endpoint: mean survival time, dose: 62.0 mg/kg/injection, schedule: Q01DX009 (ip), vehicle: saline 155 % of control | endpoint: mean survival time, dose: 64.0 mg/kg/injection, schedule: Q03HX024 (ip), vehicle: saline 157 % of control | endpoint: mean survival time, dose: 100.0 mg/kg/injection, schedule: Q01DX010 (ip), vehicle: saline 151 % of control | endpoint: mean survival time, dose: 100.0 mg/kg/injection, schedule: Q01DX010 (oral), vehicle: saline 159 % of control | endpoint: mean survival time, dose: 125.0 mg/kg/injection, schedule: Q01DX009 (ip), vehicle: clinical formulation 158 % of control | endpoint: mean survival time, dose: 125.0 mg/kg/injection, schedule: Q01DX009 (ip), vehicle: saline 167 % of control | endpoint: mean survival time, dose: 128.0 mg/kg/injection, schedule: Q01DX009 (oral), vehicle: saline 155 % of control and 164 % of control | endpoint: mean survival time, dose: 133.0 mg/kg/injection, schedule: Q01DX009 (ip), vehicle: saline 150 % of control | endpoint: mean survival time, dose: 150.0 mg/kg/injection, schedule: Q01DX009 (ip), vehicle: saline 159 % of control | endpoint: mean survival time, dose: 250.0 mg/kg/injection, schedule: Q01DX009 (ip), vehicle: clinical formulation 184 % of control | endpoint: mean survival time, dose: 250.0 mg/kg/injection, schedule: Q01DX009 (ip), vehicle: water 188 % of control | endpoint: mean survival time, dose: 300.0 mg/kg/injection, schedule: Q01DX009 (ip), vehicle: saline 166 % of control | endpoint: mean survival time, dose: 512.0 mg/kg/injection, schedule: Q04DX003 (ip), vehicle: saline 155 % of control | endpoint: mean survival time, dose: 512.0 mg/kg/injection, schedule: Q04DX003 (oral), vehicle: saline 151 % of control | endpoint: median survival time, dose: 300.0 mg/kg/injection, schedule: Q01DX009 (ip), vehicle: saline 166 % of control and 170 % of control
inactive: endpoint: mean survival time, dose: 6.5 mg/kg/injection, schedule: Q01DX009 (ip), vehicle: saline 110 % of control and 112 % of control | endpoint: mean survival time, dose: 8.0 mg/kg/injection, schedule: Q01DX009 (ip), vehicle: saline 121 % of control | endpoint: mean survival time, dose: 12.0 mg/kg/injection, schedule: Q04DX002 (ip), vehicle: saline 93 % of control and 91 % of control | endpoint: mean survival time, dose: 13.0 mg/kg/injection, schedule: Q01DX Z (ip), vehicle: saline 117 % of control | endpoint: mean survival time, dose: 16.0 mg/kg/injection, schedule: Q01DX009 (oral), vehicle: saline 116 % of control | endpoint: mean survival time, dose: 16.0 mg/kg/injection, schedule: Q03HX008 (ip), vehicle: saline 106 % of control | endpoint: mean survival time, dose: 16.0 mg/kg/injection, schedule: Q03HX016 (ip), vehicle: saline 112 % of control | endpoint: mean survival time, dose: 16.0 mg/kg/injection, schedule: Q03HX016 (oral), vehicle: saline 106 % of control | endpoint: mean survival time, dose: 19.0 mg/kg/injection, schedule: Q01DX Z (ip), vehicle: saline 117 % of control | endpoint: mean survival time, dose: 24.0 mg/kg/injection, schedule: Q04DX002 (ip), vehicle: saline 97 % of control | endpoint: mean survival time, dose: 25.0 mg/kg/injection, schedule: Q01DX009 (ip), vehicle: saline 110 % of control and 117 % of control | endpoint: mean survival time, dose: 32.0 mg/kg/injection, schedule: Q03HX008 (ip), vehicle: saline 112 % of control | endpoint: mean survival time, dose: 32.0 mg/kg/injection, schedule: Q03HX016 (ip), vehicle: saline 117 % of control | endpoint: mean survival time, dose: 37.5 mg/kg/injection, schedule: Q01DX009 (ip), vehicle: saline 120 % of control and 123 % of control | endpoint: mean survival time, dose: 64.0 mg/kg/injection, schedule: Q03HX008 (ip), vehicle: saline 110 % of control | endpoint: mean survival time, dose: 128.0 mg/kg/injection, schedule: Q01DX001 (ip), vehicle: saline 109 % of control | endpoint: mean survival time, dose: 128.0 mg/kg/injection, schedule: Q01DX001 (iv), vehicle: saline 104 % of control | endpoint: mean survival time, dose: 128.0 mg/kg/injection, schedule: Q01DX001 (oral), vehicle: saline 106 % of control | endpoint: mean survival time, dose: 128.0 mg/kg/injection, schedule: Q03HX008 (ip), vehicle: saline 121 % of control | endpoint: mean survival time, dose: 128.0 mg/kg/injection, schedule: Q04DX003 (ip), vehicle: saline 121 % of control | endpoint: mean survival time, dose: 128.0 mg/kg/injection, schedule: Q08DX002 (oral), vehicle: saline 106 % of control | endpoint: mean survival time, dose: 250.0 mg/kg/injection, schedule: Q01DX001 (ip), vehicle: saline 112 % of control and 121 % of control | endpoint: mean survival time, dose: 256.0 mg/kg/injection, schedule: Q01DX001 (iv), vehicle: saline 99 % of control | endpoint: mean survival time, dose: 256.0 mg/kg/injection, schedule: Q01DX001 (oral), vehicle: saline 110 % of control | endpoint: mean survival time, dose: 256.0 mg/kg/injection, schedule: Q08DX002 (ip), vehicle: saline 104 % of control | endpoint: mean survival time, dose: 320.0 mg/kg/injection, schedule: Q01DX010 (oral), vehicle: saline 117 % of control | endpoint: mean survival time, dose: 400.0 mg/kg/injection, schedule: Q01DX010 (im), vehicle: saline 86 % of control | endpoint: mean survival time, dose: 400.0 mg/kg/injection, schedule: Q01DX010 (oral), vehicle: saline 116 % of control | endpoint: mean survival time, dose: 400.0 mg/kg/injection, schedule: Q01DX010 (sc), vehicle: saline 90 % of control | endpoint: mean survival time, dose: 758.0 mg/kg/injection, schedule: Q04DX002 (ip), vehicle: saline 103 % of control | endpoint: median survival time, dose: 500.0 mg/kg/injection, schedule: Q01DX009 (ip), vehicle: saline 49 % of control and 54 % of control

CCNC(=O)CCl
inactive: [1] 96 % of control | [2] 104 % of control

Cc1cnc(C#N)c(C#N)n1
inactive: endpoint: mean survival time, dose: 12.5 mg/kg/injection, schedule: Q04DX002 (ip), vehicle: Klucel (hydroxypropylcellulose) (HPC) 100 % of control | endpoint: mean survival time, dose: 25.0 mg/kg/injection, schedule: Q04DX002 (ip), vehicle: Klucel (hydroxypropylcellulose) (HPC) 96 % of control | endpoint: mean survival time, dose: 50.0 mg/kg/injection, schedule: Q04DX002 (ip), vehicle: Klucel (hydroxypropylcellulose) (HPC) 96 % of control

COc1ccc(/C=C\C(=O)NCCCCNC(=O)/C=C/c2ccc(OC)cc2)cc1
inactive: [1] 101 % of control | [2] 88 % of control

NCCCCC(N)C(=O)NC1C(CO)OC(n2cnc3c(N)ncnc32)C1O (stereo not given)
inactive: [1] 101 % of control | [2] 105 % of control | [3] 101 % of control

ClCCN(CCCl)c1ccc(-n2cnc3c(Cl)ncnc32)cc1
inactive: endpoint: mean survival time, dose: 32.0 mg/kg/injection, schedule: Q01DX015 (ip), vehicle: carboxymethylcellulose (CMC) 96 % of control | endpoint: mean survival time, dose: 64.0 mg/kg/injection, schedule: Q01DX015 (ip), vehicle: carboxymethylcellulose (CMC) 96 % of control | endpoint: mean survival time, dose: 128.0 mg/kg/injection, schedule: Q01DX015 (ip), vehicle: carboxymethylcellulose (CMC) 97 % of control | endpoint: mean survival time, dose: 256.0 mg/kg/injection, schedule: Q01DX015 (ip), vehicle: carboxymethylcellulose (CMC) 105 % of control

CCOC(=O)CNC(=O)CO
inactive: endpoint: mean survival time, dose: 100.0 mg/kg/injection, schedule: Q01DX001 (ip), vehicle: other 101 % of control | endpoint: mean survival time, dose: 200.0 mg/kg/injection, schedule: Q01DX001 (ip), vehicle: other 95 % of control | endpoint: mean survival time, dose: 400.0 mg/kg/injection, schedule: Q01DX001 (ip), vehicle: other 101 % of control

CC[CH2][Sn]([CH2]CC)([O]S(C)(=O)=O)[O]S(C)(=O)=O
inactive: endpoint: mean survival time, dose: 1.56 mg/kg/injection, schedule: Q01DX009 (ip), vehicle: Klucel (hydroxypropylcellulose) (HPC) 115 % of control | endpoint: mean survival time, dose: 3.12 mg/kg/injection, schedule: Q01DX009 (ip), vehicle: Klucel (hydroxypropylcellulose) (HPC) 97 % of control

O=S(=O)(Nc1ccccc1)c1ccccc1C#Cc1ccccc1
inactive: endpoint: mean survival time, dose: 100.0 mg/kg/injection, schedule: Q01DX001 (ip), vehicle: steriod suspending solution 105 % of control | endpoint: mean survival time, dose: 200.0 mg/kg/injection, schedule: Q01DX001 (ip), vehicle: steriod suspending solution 100 % of control | endpoint: mean survival time, dose: 400.0 mg/kg/injection, schedule: Q01DX001 (ip), vehicle: steriod suspending solution 97 % of control

C#CCn1c(=O)c2c(ncn2C)n(C)c1=O
inactive: endpoint: mean survival time, dose: 6.25 mg/kg/injection, schedule: Q04DX003 (ip), vehicle: saline 100 % of control

CN(CSc1ccc([N+](=O)[O-])cc1)CSc1ccc([N+](=O)[O-])cc1
inactive: [1] 94 % of control | [2] 88 % of control | [3] 94 % of control

O=C(O)c1ccc(O)c([N+](=O)[O-])c1
inactive: endpoint: mean survival time, dose: 100.0 mg/kg/injection, schedule: Q01DX009 (ip), vehicle: saline 105 % of control | endpoint: mean survival time, dose: 100.0 mg/kg/injection, schedule: Q04DX003 (ip), vehicle: Klucel (hydroxypropylcellulose) (HPC) 101 % of control | endpoint: mean survival time, dose: 200.0 mg/kg/injection, schedule: Q01DX009 (ip), vehicle: saline 96 % of control | endpoint: mean survival time, dose: 200.0 mg/kg/injection, schedule: Q04DX003 (ip), vehicle: Klucel (hydroxypropylcellulose) (HPC) 100 % of control | endpoint: mean survival time, dose: 400.0 mg/kg/injection, schedule: Q01DX009 (ip), vehicle: saline 87 % of control | endpoint: mean survival time, dose: 400.0 mg/kg/injection, schedule: Q04DX003 (ip), vehicle: Klucel (hydroxypropylcellulose) (HPC) 102 % of control
